Test results taken from patent US8222282B2, “Sulfonate salts of 2-amino-3-carbethoxyamino-6-(4-fluoro-benzylamino)-pyridine” (Teva Pharmaceuticals USA, Inc., priority 2008, dated 2012).

Key:
Type in all cases: physicochemical
[1] = Bulk density of flupirtine salts; settings: volume per 100.0 g of sample material
Experimental: The bulk density was determined as follows: Without increasing its density, sample material (about 4 grams) was introduced into a 10 ml measuring cylinder (±0.2 ml). The volume and the exact weight of the introduced sample material were determined. The bulk density was calculated as volume per 100.0 g of sample material.

[2] = Oxidative stability: HPLC of flupirtine salts after storage at room temperature under open air; settings: for Flupirtine signal after 14 days (area under the peak in, %): HPLC after 14 days of storage at room temperature under open air; for Flupirtine signal after 0 days (area under the peak in, %): HPLC after isolation and drying; for decrease of area under the peak of the flupirtine signal: 0 to 14 days, room temperature, open air
Experimental: HPLC Method [table] HPLC analysis was performed after isolation and drying of flupirtine maleate form A and flupirtine sulfonate salts and repeated after 14 days of storage at room temperature under open air.

[3] = Solubility in demineralised water (photometric); settings: 60 min stirring at 20° C.; for solubility thermodynamic at 60 min: demineralised water
Experimental: […] Subsequently, an aliquot of the solution was centrifuged at 10,000 rpm and the flupirtine absorption was photometrically determined in the supernatant. The amount of flupirtine in solution was calculated with a response factor (absorption/mg substance).

[4] = Discolouration measurements, optical comparison with RAL scale of colours; settings: 60° C. and 70° C., alone and in mixture with MCC, lactose or DiCaPhos, dry and 100% rh
Experimental: Discolouration was measured using optical comparison with a standard: the RAL scale of colours (see list). The colour changes during the experiment were compared to this standard list and the appropriate value was noted. The intensity was increasing on a scale ranging from 1 to 10.
A higher number means more discolouration. The increase in colour intensity is not proportional but qualitative.
The colouration of flupirtine maleate and flupirtine mesilate has been observed at 60° C. and at 70° C. with the substance alone and in mixture with micro crystalline cellulose (MCC), with lactose or with dicalcium phosphate DiCaPhos (CaHPO4). The tests were performed under dry and neat conditions. Neat refers to saturated with moisture, i.e., 100% relative humidity (rh). […] Only with lactose moisture had to be avoided for the mesilate.

[5] = Oxidative stability: HPLC of flupirtine salts after storage at room temperature under open air; settings: exposed to air, 30 days at room temperature; in contrast to maleate, gluconate or inorganic salts

CCOC(=O)Nc1ccc(NCc2ccc(F)cc2)nc1N.O=C(O)/C=C\C(=O)O [Maleate Form B, reference compound]
Bulk density [1]: 1634 ml/100 g substance

CCOC(=O)Nc1ccc(NCc2ccc(F)cc2)nc1N.Cc1ccc(S(=O)(=O)O)cc1 [Flupirtine tosilate, 2-amino-3-carbethoxyamino-6-(4-fluoro-benzylamino)-pyridine Tosilate]
Bulk density [1]: 420 ml/100 g substance

CCOC(=O)Nc1ccc(NCc2ccc(F)cc2)nc1N.CS(=O)(=O)O [Flupirtine mesilate, 2-amino-3-carbethoxyamino-6-(4-fluoro-benzylamino)-pyridine Mesilate]
Flupirtine signal after 14 days (area under the peak in, %) [2]: 96.81% | Flupirtine signal after 0 days (area under the peak in, %) [2]: 97.69% | Bulk density [1]: 478 ml/100 g substance | solubility thermodynamic at 60 min [3]: 52 µg/mL | discolouration compared to maleate [4]: equal or less discolouration | stability towards oxidation and towards discolouration [5]: substantially improved stability

CCOC(=O)Nc1ccc(NCc2ccc(F)cc2)nc1N.O=C(O)/C=C\C(=O)O [Flupirtine maleate A, reference compound]
decrease of area under the peak of the flupirtine signal [2]: 3.11% | Flupirtine signal after 14 days (area under the peak in, %) [2]: 96.18% | Flupirtine signal after 0 days (area under the peak in, %) [2]: 99.27% | Bulk density ([1]; listed as Maleate Form A): 686 ml/100 g substance | Solubility [3]: 1.6 mg/100 ml water

CCOC(=O)Nc1ccc(NCc2ccc(F)cc2)nc1N.O=S(=O)(O)c1ccccc1 [Flupirtine besilate, 2-amino-3-carbethoxyamino-6-(4-fluoro-benzylamino)-pyridine Besilate]
decrease of area under the peak of the flupirtine signal [2]: less than 0.1% | Flupirtine signal after 14 days (area under the peak in, %) [2]: 96.87% | Flupirtine signal after 0 days (area under the peak in, %) [2]: 96.93% | Bulk density [1]: 358 ml/100 g substance | solubility thermodynamic at 60 min [3]: 32 µg/mL | stability towards oxidation and towards discolouration [5]: substantially improved stability
